Two compounds from patent publication US20260092246A1, “PLATFORM FOR ANTIMICROBIAL SUSCEPTIBILITY TESTING AND BACTERIAL IDENTIFICATION” (ASTRADX, INC., priority 2022, published 2026) can be followed below.

This assay concerns E. coli. The assay is described as follows: Antimicrobial susceptibility testing by dilution-temporal modeling (DTM) of growth in microwell plates with doubling dilutions of antibiotic. Format: cell-based. The following applies: Escherichia coli. From the text: “Categorical agreement” is a term of art in AST that describes whether an organism is susceptible or resistant by each of two methods, typically a reference method and an investigative method. The reference method is broth microdilution and comes from the CLSI (M100).
Each experiment involved a standard inoculum of bacteria grown at a concentration similar to what was recovered from the growth-detection step, which began with whole blood. The inoculum was automatically dispensed into the wells of a microwell plate. The wells contained doubling dilutions of standard antibiotics such as cefepime, meropenem, ciprofloxacin, and gentamicin (for gram-negative bacteria). A large number of wells enabled multiple replicates per condition, providing robustness to random dropouts or to growth variation.
In each experiment, the growth and color of each well was monitored for growth by an automated imager. Serial images for each “bug-drug” combination were combined to create a unified picture of bacterial growth for each antibiotic, measure MICs, and determine any correction factors necessary to maximize S/I/R categorical agreement with reference MICs. […]

Like-named read-outs stand apart in the source and are kept apart here.

Regarding `CO/N=C(\C(=O)N[C@@H]1C(=O)N2C(C(=O)[O-])=C(C[N+]3(C)CCCC3)CS[C@H]12)c1csc(N)n1` [cefepime], where the note is “cefepime-resistant strain of E. coli, FIG. 6B, within a single doubling dilution of reference-method MIC, read-out: MIC by the disclosed method (concentration at which growth falls off)”, the MIC worked out at 16 µg/mL.

Take `C[C@@H](O)[C@H]1C(=O)N2C(C(=O)O)=C(S[C@@H]3CN[C@H](C(=O)N(C)C)C3)[C@H](C)[C@H]12` [meropenem]: the MIC (read-out: MIC by the disclosed method (concentration at which fall in growth is visible)) worked out at 0.5 µg/mL.
